Assay results: patent publication US4145442A, “Phenoxy-hydroxypropylamines, their preparation, and method and pharmaceutical preparations for treating cardiovascular diseases” (priority 1972, dated 1979)
Read-outs that look alike come from different tables or passages of the source.

Tests used:
Assay type in all cases: in vivo
[1] = target: T1, β-receptors of the heart (Felis catus, UniProt Q9TST6); assay: Intrinsic activity on heart rate in reserpinized cat; conditions: iv, anesthetized, vagotomized, i.v., read-out: Intrinsic activity % of maximal isoprenaline heart rate
T1 construct: from tissue; host or cells: heart of the anesthetized, reserpine-pretreated, vagotomized cat (in vivo)
T1 sequence (Q9TST6 whole entry): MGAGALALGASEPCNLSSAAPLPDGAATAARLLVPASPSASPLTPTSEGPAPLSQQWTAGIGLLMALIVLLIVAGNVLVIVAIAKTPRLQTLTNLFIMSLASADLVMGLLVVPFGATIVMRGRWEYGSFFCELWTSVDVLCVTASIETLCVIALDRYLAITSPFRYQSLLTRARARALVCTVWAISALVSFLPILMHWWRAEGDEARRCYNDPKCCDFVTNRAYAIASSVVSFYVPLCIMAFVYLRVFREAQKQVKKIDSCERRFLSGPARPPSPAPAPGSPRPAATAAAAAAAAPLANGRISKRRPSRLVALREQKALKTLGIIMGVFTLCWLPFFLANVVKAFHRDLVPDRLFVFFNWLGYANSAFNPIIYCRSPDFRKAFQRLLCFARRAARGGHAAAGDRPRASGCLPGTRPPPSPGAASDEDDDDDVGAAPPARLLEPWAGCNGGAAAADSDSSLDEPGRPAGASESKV
Description: (§1) Compounds prepared according to the examples were evaluated for intrinsic activity and blocking effect on heart rate and peripheral vasodilator response to isoprenaline in the cat. Alprenolol was used as a reference source.
(§2) Cats weighing between 1.8 and 2.8 kg were anesthetized with 39 mg/kg pentobarbital sodium, intraperitoneally. The cat had been pre-treated with reserpine, 5 mg/kg intramuscular, about 18 hours before the experiment. Bilateral vagotomy was performed before the start of the experiment.
(§3) The heart rate was recorded on an Offner cardiotachometer triggered by the EKG-complex. Mean arterial blood pressure was recorded from a carotid artery. The peripheral resistance was measured in one of the legs of the cat in the following way: The femoral artery was opened in the inguinal region and the leg was perfused by blood delivered through a sigma motor pump at constant rate. The flow resistance (the pressure) was recorded via pressure transducer connected to the catheter distally to the pump. The paw was excluded from the circulation by a tight ligature. Intravenously injected isoprenaline increased the heart rate and reduced the perfusion pressure. An isoprenaline dose giving 70-80% of the maximal chronotropic response was determined. This dose (usually 0.1 μg/kg) was then repeated with 20-minute intervals. Ten minutes before each isoprenaline injection, the tested substances were administered intravenously for two minutes, starting with a dose of 0.01 mg/kg and increasing each subsequent dose fourfold. The intrinsic effects of the test substances were determined. The dose producing 50% blockade of the isoprenaline responses was evaluated from the plotted log dose percent blockade diagrams.

[2] = target: T1, β-receptors of the heart; assay: β-blockade of isoprenaline heart rate response in reserpinized cat; conditions: iv, read-out: β-blockade heart rate ED50
Description: as §1, §2, §3

[3] = target: T2, β2-receptors of the smooth muscles (Felis catus, UniProt Q9TST5); assay: β-blockade of isoprenaline peripheral vasodilator response (peripheral vascular resistance) in reserpinized cat; conditions: iv, 50% blockade of isoprenaline (usually 0.1 μg/kg) response
T2 construct: from tissue; host or cells: vascular bed of the blood-perfused leg of the anesthetized cat, paw excluded (in vivo)
T2 sequence (Q9TST5 whole entry, the tested form may be a part): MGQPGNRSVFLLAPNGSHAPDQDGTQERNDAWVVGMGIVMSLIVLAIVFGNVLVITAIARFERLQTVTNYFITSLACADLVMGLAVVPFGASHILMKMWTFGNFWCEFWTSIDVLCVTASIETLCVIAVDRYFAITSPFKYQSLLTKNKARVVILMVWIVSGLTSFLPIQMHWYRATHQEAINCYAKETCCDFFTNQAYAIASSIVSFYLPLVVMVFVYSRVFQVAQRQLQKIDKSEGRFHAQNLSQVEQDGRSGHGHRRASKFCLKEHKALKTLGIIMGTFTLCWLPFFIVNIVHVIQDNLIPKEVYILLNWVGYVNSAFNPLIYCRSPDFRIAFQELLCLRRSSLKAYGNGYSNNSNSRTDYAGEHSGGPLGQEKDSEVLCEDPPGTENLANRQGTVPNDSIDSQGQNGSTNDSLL
Description: as §1, §2, §3

[4] = reserpinized cat, i.v., 50% blockade of isoprenaline (usually 0.1 μg/kg) response

Row | Compound | Emax [1] | ED50 [2, 4] | ED50 [3] | ED50 ([2]; cat)
1 | COCCc1ccc(OCC(O)CNC(C)C)c(Br)c1 (stereo not drawn) [Example 1, 1-isopropylamino-3-[2'-bromo-4'-(β-methoxyethyl)-phenoxy]-propanol-2] | 0% | 0.03 mg/kg | 1 mg/kg | 
2 | COCCc1ccc(OCC(O)CNC(C)C)c(Cl)c1 (stereo not drawn) [Example 2, 1-isopropylamino-3-[2'-chloro-4'-(2-methoxyethyl)phenoxy]-propanol-2] | 0% | 0.1 mg/kg | 3 mg/kg | 
3 | COCCc1ccc(OCC(O)CNC(C)(C)C)c(Cl)c1 (stereo not drawn) [Example 3] | 0% | 0.03 mg/kg | 1 mg/kg | 
4 | COCCc1ccc(OCC(O)CNC(C)C)c(COC)c1 (stereo not drawn) [Example 4, 1-isopropylamino-3-[2'-methoxymethyl-4'-(2-methoxyethyl)phenoxy]-propanol-2] | 5% | 0.2 mg/kg | 5 mg/kg | 
5 | COCCCc1ccc(OCC(O)CNC(C)C)c(Cl)c1 (stereo not drawn) [Example 5, 1-isopropylamino-3-[2'-chloro-4'-(3-methoxy-n-propyl)phenoxy]-propanol-2] | 0% | 0.3 mg/kg | 2 mg/kg | 
6 | COCCCc1ccc(OCC(O)CNC(C)C)c(Br)c1 (stereo not drawn) [Example 6, 1-isopropylamino-3-[2'-bromo-4'-(3-methoxypropyl)phenoxy]-propanol-2] | 0% |  | 1.5 mg/kg | 0.4 mg/kg
7 | COCc1ccc(OCC(O)CNC(C)C)c(OC)c1 (stereo not drawn) [Example 7, 1-isopropyalmino-3-[2'-methoxymethylphenoxy]-propanol-2] | 1% | 0.6 mg/kg | 3 mg/kg | 
8 | C=CCc1cc(CCOC)ccc1OCC(O)CNC(C)C (stereo not drawn) [Example 8, 1-isopropylamino-3-[2'-allyl-4'-(2-methoxyethyl)-phenoxyl]propanol-2] | 0% | 0.1 mg/kg | 0.8 mg/kg | 
9 | CCCc1cc(CCOC)ccc1OCC(O)CNC(C)C (stereo not drawn) [Example 9, 1-isopropylamino-3-[2'-propyl-4'-(2-methoxyethyl)phenoxy]-propanol-2] | 0% | 0.1 mg/kg | 0.5 mg/kg | 
10 | C=CCc1cc(CCCOC)ccc1OCC(O)CNC(C)C (stereo not drawn) [Example 10, 1-isopropylamino-3-[2'-allyl-4'-(3-methoxy-n-propyl)phenoxy]-propanol-2] | 0% | 0.3 mg/kg | 1 mg/kg | 
11 | CSCCc1ccc(OCC(O)CNC(C)C)c(F)c1 (stereo not drawn) [Example 11, 1-isopropylamino-3-[2'-fluoro-4'-(2-methylmercaptoethyl)phenoxy]-propanol-2xHCl] | 0% | 0.2 mg/kg | 1 mg/kg | 
12 | COCCCc1ccc(OCC(O)CNC(C)C)c(OC)c1 (stereo not drawn) [Example 12, 1-isopropylamino-3-[2'-methoxy-4'-(3-methoxy-n-propyl)phenoxy]-propanol-2xHCl] | 0% |  | 5 mg/kg | 0.4 mg/kg
13 | COCCc1ccc(OCC(O)CNC(C)C)c(F)c1 (stereo not drawn) [Example 13, 1-isopropylamino-3-[2'-fluoro-4'-(2-methoxyethyl)phenoxy]-propanol-2xHCl] | 0% | 0.05 mg/kg | 2.7 mg/kg | 
